Data as given in US12252524B2, “GIP/GLP1 co-agonist compounds” (Eli Lilly and Company, priority 2018, dated 2025).
Numbered stars: 1 amine (or outer) side, 2 acyl side, 3 side chain; on linkers, the order of the positions; unused ones are H or OH. Square brackets hold non-standard residues; d marks the D form. Side chains are listed from the residue outwards. Peptide text beside a SMILES is read from it. * marks the point of attachment. C20 diacid = O=C(O)CCCCCCCCCCCCCCCCCCC(=O)*; C18 diacid = O=C(O)CCCCCCCCCCCCCCCCC(=O)*; αMePhe(2-F) = C[C@](N)(Cc1ccccc1F)C(=O)O; γGlu = O=C(O)[C@H](CCC(=O)[*:2])N[*:1]; Nle = CCCC[C@H](N)C(=O)O; Orn = NCCC[C@H](N)C(=O)O; AEEA = NCCOCCOCC(=O)O; Aib = CC(C)(N)C(=O)O

Experiments:
[1] = target: T1, gastric inhibitory peptide receptor (GIPR) (Homo sapiens, UniProt P48546); assay: cAMP pharmacological functional assay in presence of casein, hGIPR; format: cell-based; conditions: HEK293 cells expressing hGIPR, 0.1% Casein, geometric mean; read-out: hGIPR cAMP Rel EC50 nM (SEM, n)
T1 sequence (P48546 22-466): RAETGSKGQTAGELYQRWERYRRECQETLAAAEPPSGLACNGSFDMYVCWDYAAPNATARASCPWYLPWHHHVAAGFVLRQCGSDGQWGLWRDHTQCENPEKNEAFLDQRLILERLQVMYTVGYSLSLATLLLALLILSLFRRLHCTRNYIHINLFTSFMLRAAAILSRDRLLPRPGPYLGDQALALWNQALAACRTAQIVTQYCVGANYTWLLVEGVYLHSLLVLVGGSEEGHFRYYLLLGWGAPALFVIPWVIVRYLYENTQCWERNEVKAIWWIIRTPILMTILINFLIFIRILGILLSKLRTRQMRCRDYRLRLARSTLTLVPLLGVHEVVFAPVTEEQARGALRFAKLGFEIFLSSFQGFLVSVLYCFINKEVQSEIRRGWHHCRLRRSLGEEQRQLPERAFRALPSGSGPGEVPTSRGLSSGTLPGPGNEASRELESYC

human GIP receptor = target: T2, human GIP receptor (Homo sapiens, UniProt P48546); assay: [125I]-GIP binding (SPA), human GIP receptor; conditions: read-out: hGIPR Ki, nM (SEM, n)
T2 construct: expressed in transfected cells; crude membranes
T2 sequence (P48546 22-466): T1 sequence (P48546 22-466)

[2] = target: human GLP-1 receptor (GLP-1R) (Homo sapiens, UniProt P43220); assay: cAMP pharmacological functional assay in presence of casein, hGLP-1R; format: cell-based; conditions: HEK293 cells expressing hGLP-1R, 0.1% Casein, geometric mean; read-out: hGLP1R cAMP Rel EC50 nM (SEM, n)
human GLP-1R = human GLP-1R (Homo sapiens, UniProt P43220); assay: [125I]-GLP-1 binding (SPA), human GLP-1 receptor; set-up: expressed in transfected cells; crude membranes; conditions: read-out: hGLP1R Ki, (nM) (SEM, n)
Procedure, shortened: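 Crude-membrane binding assay; one membrane prep included 1 mM MgCl2 and 25 units/ml DNAse I during lysis. Assay buffer at pH 7.4 contains 0.1% (w/v) bacitracin and 0.003% (w/v) TWEEN-20. Ki is reported as geometric mean.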

human Gcg receptor = target: T3, human Gcg receptor (Homo sapiens, UniProt P47871); assay: [125I]-Glucagon binding (SPA), human Gcg receptor; conditions: read-out: hGLcgR Ki, nM (SEM, n)
T3 construct: expressed in transfected cells; crude membranes
Procedure, shortened: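 Crude membranes from cells expressing the receptor, prepared by hypotonic lysis in 50 mM Tris HCl pH 7.5 with protease inhibitors, homogenization and differential centrifugation, were used in a WGA-bead SPA. Binding buffer: 25 mM HEPES pH 7.4, 2.5 mM CaCl2, 1 mM MgCl2, bacitracin, Tween-20.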

Sequence of human GLP-1R (P43220 24-463): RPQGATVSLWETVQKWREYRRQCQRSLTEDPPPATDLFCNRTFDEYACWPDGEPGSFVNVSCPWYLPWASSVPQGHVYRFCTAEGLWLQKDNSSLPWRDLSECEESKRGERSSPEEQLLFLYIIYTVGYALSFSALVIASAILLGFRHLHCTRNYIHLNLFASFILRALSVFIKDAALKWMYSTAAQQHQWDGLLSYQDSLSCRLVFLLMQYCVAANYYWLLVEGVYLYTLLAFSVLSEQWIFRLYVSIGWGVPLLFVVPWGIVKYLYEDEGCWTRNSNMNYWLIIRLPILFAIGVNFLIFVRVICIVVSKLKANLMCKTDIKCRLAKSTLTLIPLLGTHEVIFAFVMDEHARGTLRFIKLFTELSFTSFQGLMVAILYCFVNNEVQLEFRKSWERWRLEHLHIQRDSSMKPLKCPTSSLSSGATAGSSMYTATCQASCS
Sequence of human GLP-1 receptor (GLP-1R) (P43220 24-463): as above
T3 sequence (P47871 26-477): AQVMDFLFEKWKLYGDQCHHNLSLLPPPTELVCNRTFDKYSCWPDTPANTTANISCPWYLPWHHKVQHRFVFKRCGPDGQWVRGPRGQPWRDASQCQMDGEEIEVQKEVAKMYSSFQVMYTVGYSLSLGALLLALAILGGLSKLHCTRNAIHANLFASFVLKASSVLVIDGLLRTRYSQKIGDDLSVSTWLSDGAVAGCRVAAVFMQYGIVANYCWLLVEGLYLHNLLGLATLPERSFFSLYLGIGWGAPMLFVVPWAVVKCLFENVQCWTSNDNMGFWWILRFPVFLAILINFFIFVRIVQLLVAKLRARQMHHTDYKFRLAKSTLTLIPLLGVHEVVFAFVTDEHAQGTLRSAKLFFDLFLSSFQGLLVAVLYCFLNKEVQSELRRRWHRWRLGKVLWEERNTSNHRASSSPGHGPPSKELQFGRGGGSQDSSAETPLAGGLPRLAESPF

SMILES	EC50 [1] [nM]	Ki (human GIP receptor) [nM]	EC50 [2] [nM]	Ki (human GLP-1R) [nM]	Ki (human Gcg receptor) [nM]
CC[C@H](C)[C@H](NC(=O)[C@H](CC(C)C)NC(=O)[C@H](Cc1ccc(O)cc1)NC(=O)[C@@H](CCC(=O)O)NC(=O)[C@@H](NC(=O)[C@H](Cc1ccccc1)NC(=O)[C@H](CCC(=O)O)NC(=O)C(C)(C)NC(=O)[C@H](CCC(N)=O)NC(=O)[C@H](C)NC(=O)[C@H](CCCCNC(=O)COCCOCCNC(=O)COCCOCCNC(=O)CC[C@H](NC(=O)CCCCCCCCCCCCCCCCC(=O)O)C(=O)O)NC(=O)[C@H](CCCN)NC(=O)[C@H](CC(=O)O)NC(=O)[C@H](CC(C)C)NC(=O)[C@H](CC(C)C)NC(=O)[C@@H](NC(=O)[C@H](CO)NC(=O)[C@H](Cc1ccc(O)cc1)NC(=O)[C@H](CC(=O)O)NC(=O)[C@H](CO)NC(=O)[C@@H](NC(=O)[C@](C)(Cc1ccccc1F)NC(=O)[C@@H](NC(=O)CNC(=O)[C@H](CCC(=O)O)NC(=O)C(C)(C)NC(=O)[C@@H](N)Cc1ccc(O)cc1)[C@@H](C)O)[C@@H](C)O)[C@@H](C)CC)[C@@H](C)CC)C(=O)N[C@@H](CCC(=O)O)C(=O)NCC(=O)NCC(=O)N1CCC[C@H]1C(=O)N[C@@H](CO)C(=O)N[C@@H](CO)C(=O)NCC(=O)N[C@@H](C)C(=O)N1CCC[C@H]1C(=O)N1CCC[C@H]1C(=O)N1CCC[C@H]1C(=O)N[C@@H](CO)C(N)=O [Example 248] (H-Y[Aib]EGT[αMePhe(2-F)]TSDYSILLD[Orn]K([AEEA-AEEA-γGlu-C18 diacid])AQ[Aib]EFI[dE]YLIEGGPSSGAPPPS-NH2)	0.0328	0.0397	0.0428	2.4	> 1050
CCCC[C@H](NC(=O)[C@@H](NC(=O)[C@H](CO)NC(=O)[C@H](Cc1ccc(O)cc1)NC(=O)[C@H](CC(=O)O)NC(=O)[C@H](CO)NC(=O)[C@@H](NC(=O)[C@](C)(Cc1ccccc1F)NC(=O)[C@@H](NC(=O)CNC(=O)[C@H](CCC(=O)O)NC(=O)C(C)(C)NC(=O)[C@@H](N)Cc1ccc(O)cc1)[C@@H](C)O)[C@@H](C)O)[C@@H](C)CC)C(=O)N[C@@H](CC(C)C)C(=O)N[C@@H](CC(=O)O)C(=O)N[C@@H](CCCN)C(=O)N[C@@H](CCCCNC(=O)COCCOCCNC(=O)COCCOCCNC(=O)CC[C@H](NC(=O)CCCCCCCCCCCCCCCCC(=O)O)C(=O)O)C(=O)N[C@@H](C)C(=O)N[C@@H](CCC(N)=O)C(=O)NC(C)(C)C(=O)N[C@@H](CCC(=O)O)C(=O)N[C@@H](Cc1ccccc1)C(=O)N[C@H](C(=O)N[C@H](CCC(=O)O)C(=O)N[C@@H](Cc1ccc(O)cc1)C(=O)N[C@@H](CC(C)C)C(=O)N[C@H](C(=O)N[C@@H](CCC(=O)O)C(=O)NCC(=O)NCC(=O)N1CCC[C@H]1C(=O)N[C@@H](CO)C(=O)N[C@@H](CO)C(=O)NCC(=O)N[C@@H](C)C(=O)N1CCC[C@H]1C(=O)N1CCC[C@H]1C(=O)N1CCC[C@H]1C(=O)N[C@@H](CO)C(N)=O)[C@@H](C)CC)[C@@H](C)CC [Example 249] (H-Y[Aib]EGT[αMePhe(2-F)]TSDYSI[Nle]LD[Orn]K([AEEA-AEEA-γGlu-C18 diacid])AQ[Aib]EFI[dE]YLIEGGPSSGAPPPS-NH2)	0.0437	0.0394	0.0446	2.35	> 1000
CC[C@H](C)[C@H](NC(=O)[C@H](CC(C)C)NC(=O)[C@H](Cc1ccc(O)cc1)NC(=O)[C@@H](CCC(=O)O)NC(=O)[C@@H](NC(=O)[C@H](Cc1ccccc1)NC(=O)[C@H](CCC(=O)O)NC(=O)C(C)(C)NC(=O)[C@H](CCC(N)=O)NC(=O)[C@H](C)NC(=O)[C@H](CCCCNC(=O)COCCOCCNC(=O)COCCOCCNC(=O)CC[C@H](NC(=O)CCCCCCCCCCCCCCCCCCC(=O)O)C(=O)O)NC(=O)[C@H](CCCN)NC(=O)[C@H](CC(=O)O)NC(=O)[C@H](CC(C)C)NC(=O)C(C)(C)NC(=O)[C@@H](NC(=O)[C@H](CO)NC(=O)[C@H](Cc1ccc(O)cc1)NC(=O)[C@H](CC(=O)O)NC(=O)[C@H](CO)NC(=O)[C@@H](NC(=O)[C@](C)(Cc1ccccc1F)NC(=O)[C@@H](NC(=O)CNC(=O)[C@H](CCC(=O)O)NC(=O)C(C)(C)NC(=O)[C@@H](N)Cc1ccc(O)cc1)[C@@H](C)O)[C@@H](C)O)[C@@H](C)CC)[C@@H](C)CC)C(=O)N[C@@H](CCC(=O)O)C(=O)NCC(=O)NCC(=O)N1CCC[C@H]1C(=O)N[C@@H](CO)C(=O)N[C@@H](CO)C(=O)NCC(=O)N[C@@H](C)C(=O)N1CCC[C@H]1C(=O)N1CCC[C@H]1C(=O)N1CCC[C@H]1C(=O)N[C@@H](CO)C(N)=O [Example 250] (H-Y[Aib]EGT[αMePhe(2-F)]TSDYSI[Aib]LD[Orn]K([AEEA-AEEA-γGlu-C20 diacid])AQ[Aib]EFI[dE]YLIEGGPSSGAPPPS-NH2)	0.0376	0.0171	0.0306	1.72	198
CC[C@H](C)[C@H](NC(=O)[C@H](CC(C)C)NC(=O)C(C)(Cc1ccc(O)cc1)NC(=O)[C@@H](CCC(=O)O)NC(=O)[C@@H](NC(=O)[C@H](Cc1ccccc1)NC(=O)[C@H](C)NC(=O)C(C)(C)NC(=O)[C@H](CCC(N)=O)NC(=O)[C@H](C)NC(=O)[C@H](CCCCNC(=O)COCCOCCNC(=O)COCCOCCNC(=O)[C@@H](N)CCCCNC(=O)CCCCCCCCCCCCCCCCCCC(=O)O)NC(=O)[C@H](CCCN)NC(=O)[C@H](CC(=O)O)NC(=O)[C@H](CC(C)C)NC(=O)C(C)(CC(C)C)NC(=O)[C@@H](NC(=O)[C@H](CO)NC(=O)[C@H](Cc1ccncc1)NC(=O)[C@H](CC(=O)O)NC(=O)[C@H](CO)NC(=O)[C@@H](NC(=O)C(C)(Cc1ccccc1F)NC(=O)[C@@H](NC(=O)CNC(=O)[C@H](CCC(=O)O)NC(=O)C(C)(C)NC(=O)[C@@H](N)Cc1ccc(O)cc1)[C@@H](C)O)[C@@H](C)O)[C@@H](C)CC)[C@@H](C)CC)C(=O)N[C@@H](CCC(=O)O)C(=O)NCC(=O)NCC(=O)N1CCC[C@H]1C(=O)N[C@@H](CO)C(=O)N[C@@H](CO)C(=O)NCC(=O)N[C@@H](C)C(=O)N1CCC[C@H]1C(=O)N1CCC[C@H]1C(=O)N1CCC[C@H]1C(=O)N[C@@H](CO)C(N)=O (stereo partly shown) [Example 251]	0.0292	0.0249	0.081	1.09	21.2
CC[C@H](C)[C@H](NC(=O)[C@H](CC(C)C)NC(=O)C(C)(Cc1ccc(O)cc1)NC(=O)[C@@H](CCC(=O)O)NC(=O)[C@@H](NC(=O)[C@H](Cc1ccccc1)NC(=O)[C@H](C)NC(=O)C(C)(C)NC(=O)[C@H](CCC(N)=O)NC(=O)[C@H](C)NC(=O)[C@H](CCCCNC(=O)COCCOCCNC(=O)COCCOCCNC(=O)[C@@H](N)CCCCNC(=O)CCCCCCCCCCCCCCCCCCC(=O)O)NC(=O)[C@H](CCCN)NC(=O)[C@H](CC(=O)O)NC(=O)[C@H](CC(C)C)NC(=O)C(C)(CC(C)C)NC(=O)[C@@H](NC(=O)[C@H](CO)NC(=O)[C@H](Cc1ccncc1)NC(=O)[C@H](CC(=O)O)NC(=O)[C@H](CO)NC(=O)[C@@H](NC(=O)C(C)(Cc1ccccc1F)NC(=O)[C@@H](NC(=O)CNC(=O)[C@H](CCC(=O)O)NC(=O)C(C)(C)NC(=O)[C@@H](N)Cc1ccc(O)cc1)[C@@H](C)O)[C@@H](C)O)[C@@H](C)CC)[C@@H](C)CC)C(=O)N[C@@H](C)C(=O)NCC(=O)NCC(=O)N1CCC[C@H]1C(=O)N[C@@H](CO)C(=O)N[C@@H](CO)C(=O)NCC(=O)N[C@@H](C)C(=O)N1CCC[C@H]1C(=O)N1CCC[C@H]1C(=O)N1CCC[C@H]1C(=O)N[C@@H](CO)C(N)=O (stereo partly shown) [Example 252]	0.093	0.00971	0.0483	0.383	26
